Experiment: Inhibition of LCK in human peripheral T cells assessed as suppression of TCR-dependant cell proliferation

IC50: 3.8 µM
SMILES: Cc1c(-c2c(F)cc(C(N)=O)c3[nH]c4c(c23)CC[C@H](C(C)(C)O)C4)cccc1-n1c(=O)c2cccc(F)c2n(C)c1=O
